# Data taken from patent US20250051300A1, “GRAM-NEGATIVE SPECIFIC ANTIBIOTICS SPARING EFFECT ON GUT MICROBIOME” (THE BOARD OF TRUSTEES OF THE UNIVERSITY OF ILLINOIS, priority 2021, published 2025).
# Read-outs that look alike come from different tables or passages of the source.
# Tests used:
# [1] = test system: E. coli AR0349; assay: Bacterial sepsis survival model; format: in vivo, CD-1 mice
# [2] = test system: clinical isolates of E. coli, K. pneumoniae, and E. cloacae; assay: Susceptibility of panel of multidrug-resistant clinical isolates; settings: MDR clinical isolates of E. coli
# [3] = test system: Klebsiella pneumoniae; assay: MIC, micro-dilution broth method (CLSI); format: cell-based; settings: Klebsiella pneumoniae, read-out: MIC
# [4] = Aqueous solubility limit; format: physicochemical; settings: limit to which compounds were tested in MIC assays
# [5] = test system: Escherichia coli; assay: MIC, micro-dilution broth method (CLSI); format: cell-based; settings: Escherichia coli
# [6] = test system: E. coli AR0349; assay: Acute pneumonia bacterial burden model; format: in vivo, CD-1 mice; settings: lungs, 72 h post-infection
# [7] = test system: Enterobacter cloacae; assay: MIC, micro-dilution broth method (CLSI); format: cell-based; settings: Enterobacter cloacae, read-out: MIC
smiles,measurement,setting,value
"Cc1cc(-c2c[nH]nc2-c2cccc(OCc3cccc(C#N)c3)c2)cc(C)n1 [Compound 12, 3-((3-(4-(2,6-dimethylpyridin-4-yl)-1H-pyrazol-3-yl)phenoxy)methyl)benzonitrile]",mice with septic infection rescued (survival),[1]; 100 mg/kg IP twice daily for 3 days,100%
same,mice with septic infection rescued (survival),[1]; 200 mg/kg PO twice daily for 3 days,over 70%
same,concentration that kills 50% of the strains,[2],~2 µg/mL
same,concentration that kills 90% of the strains,[2],~8 µg/mL
same,MIC,"[3]; ATCC27736, K. pneumoniae ATCC 27736",1 µg/mL
same,MIC,"[3]; ATCCBAA1705, K. pneumoniae ATCC BAA-1705",4 µg/mL
same,MIC,"[3]; ATCCBAA2146, K. pneumoniae ATCC BAA-2146",8 µg/mL
same,MIC,"[3]; ATCCBAA2342, K. pneumoniae ATCC BAA-2342",4 µg/mL
same,MIC,"[3]; ATCCBAA2470, K. pneumoniae ATCC BAA-2470",1 µg/mL
same,MIC,"[3]; ATCCBAA2472, K. pneumoniae ATCC BAA-2472",4 µg/mL
same,MIC,"[3]; ATCCBAA2473, K. pneumoniae ATCC BAA-2473",4 µg/mL
same,MIC,[3]; K. pneumoniae AR0034,0.5 µg/mL
same,MIC,[3]; K. pneumoniae AR0039,0.5 µg/mL
same,MIC,[3]; K. pneumoniae AR0041,0.5 µg/mL
same,MIC,[3]; K. pneumoniae AR0042,4 µg/mL
same,MIC,[3]; K. pneumoniae AR0043,0.5 µg/mL
same,MIC,[3]; K. pneumoniae AR0044,0.5 µg/mL
same,MIC,[3]; K. pneumoniae AR0046,2 µg/mL
same,MIC,[3]; K. pneumoniae AR0047,4 µg/mL
same,MIC,[3]; K. pneumoniae AR0049,8 µg/mL
same,MIC,[3]; K. pneumoniae AR0066,4 µg/mL
same,MIC,[3]; K. pneumoniae AR0068,4 µg/mL
same,MIC,[3]; K. pneumoniae AR0075,1 µg/mL
same,MIC,[3]; K. pneumoniae AR0076,0.5 µg/mL
same,MIC,[3]; K. pneumoniae AR0079,2 µg/mL
same,MIC,[3]; K. pneumoniae AR0080,0.5 µg/mL
same,MIC,[3]; K. pneumoniae AR0087,2 µg/mL
same,MIC,[3]; K. pneumoniae AR0098,4 µg/mL
same,MIC,[3]; K. pneumoniae AR0106,2 µg/mL
same,MIC,[3]; K. pneumoniae AR0107,0.25 µg/mL
same,MIC,[3]; K. pneumoniae AR0109,8 µg/mL
same,MIC,[3]; K. pneumoniae AR0112,4 µg/mL
same,MIC,[3]; K. pneumoniae AR0113,2 µg/mL
same,MIC,[3]; K. pneumoniae AR0115,8 µg/mL
same,MIC,[3]; K. pneumoniae AR0117,4 µg/mL
same,MIC,[3]; K. pneumoniae AR0120,2 µg/mL
same,MIC,[3]; K. pneumoniae AR0125,4 µg/mL
same,MIC,[3]; K. pneumoniae AR0126,0.5 µg/mL
same,MIC,[3]; K. pneumoniae AR0129,4 µg/mL
same,MIC,[3]; K. pneumoniae AR0135,2 µg/mL
same,MIC,[3]; K. pneumoniae AR0138,1 µg/mL
same,MIC,[3]; K. pneumoniae AR0139,2 µg/mL
same,MIC,[3]; K. pneumoniae AR0140,2 µg/mL
same,MIC,[3]; K. pneumoniae AR0141,0.5 µg/mL
same,MIC,[3]; K. pneumoniae AR0142,0.5 µg/mL
same,MIC,[3]; K. pneumoniae AR0143,4 µg/mL
same,MIC,[3]; K. pneumoniae AR0145,2 µg/mL
same,MIC,[3]; K. pneumoniae AR0146,2 µg/mL
same,MIC,[3]; K. pneumoniae AR0148,4 µg/mL
same,MIC,[3]; K. pneumoniae AR0152,0.5 µg/mL
same,MIC,[3]; K. pneumoniae AR0153,4 µg/mL
same,MIC,[3]; K. pneumoniae AR0158,8 µg/mL
same,MIC,[3]; K. pneumoniae AR0160,0.5 µg/mL
same,MIC,[3]; K. pneumoniae AR0347,8 µg/mL
same,MIC,[3]; K. pneumoniae AR0542,2 µg/mL
same,MIC,[3]; K. pneumoniae AR0548,2 µg/mL
same,MIC,[3]; K. pneumoniae AR0550,2 µg/mL
same,MIC,[3]; K. pneumoniae AR0552,4 µg/mL
same,MIC,[3]; K. pneumoniae AR0553,0.5 µg/mL
same,MIC,[3]; K. pneumoniae AR0554,4 µg/mL
same,MIC,[3]; K. pneumoniae AR0555,2 µg/mL
same,MIC,[3]; K. pneumoniae AR-0040,1 µg/mL
same,solubility,[4]; aqueous medium (not further specified),128 µg/mL
same,solubility,[4],128 µg/mL
same,MIC,"[5]; ATCC25922, E. coli ATCC 25922, read-out: MIC",1 µg/mL
same,MIC,"[5]; ATCCBAA2340, E. coli ATCC BAA-2340, read-out: MIC",2 µg/mL
same,MIC,"[5]; ATCCBAA2469, E. coli ATCC BAA-2469, read-out: MIC",1 µg/mL
same,MIC,"[5]; ATCCBAA2471, E. coli ATCC BAA-2471, read-out: MIC",4 µg/mL
same,MIC,"[5]; E. coli AR0048, read-out: MIC",4 µg/mL
same,MIC,"[5]; E. coli AR0055, read-out: MIC",2 µg/mL
same,MIC,"[5]; E. coli AR0058, read-out: MIC",2 µg/mL
same,MIC,"[5]; E. coli AR0061, read-out: MIC",8 µg/mL
same,MIC,"[5]; E. coli AR0067, read-out: MIC",2 µg/mL
same,MIC,"[5]; E. coli AR0069, read-out: MIC",2 µg/mL
same,MIC,"[5]; E. coli AR0077, read-out: MIC",1 µg/mL
same,MIC,"[5]; E. coli AR0081, read-out: MIC",2 µg/mL
same,MIC,"[5]; E. coli AR0084, read-out: MIC",2 µg/mL
same,MIC,"[5]; E. coli AR0085, read-out: MIC",1 µg/mL
same,MIC,"[5]; E. coli AR0086, read-out: MIC",0.5 µg/mL
same,MIC,"[5]; E. coli AR0089, read-out: MIC",2 µg/mL
same,MIC,"[5]; E. coli AR0104, read-out: MIC",1 µg/mL
same,MIC,"[5]; E. coli AR0114, read-out: MIC",2 µg/mL
same,MIC,"[5]; E. coli AR0118, read-out: MIC",1 µg/mL
same,MIC,"[5]; E. coli AR0119, read-out: MIC",4 µg/mL
same,MIC,"[5]; E. coli AR0128, read-out: MIC",1 µg/mL
same,MIC,"[5]; E. coli AR0137, read-out: MIC",2 µg/mL
same,MIC,"[5]; E. coli AR0149, read-out: MIC",2 µg/mL
same,MIC,"[5]; E. coli AR0150, read-out: MIC",1 µg/mL
same,MIC,"[5]; E. coli AR0151, read-out: MIC",2 µg/mL
same,MIC,"[5]; E. coli AR0162, read-out: MIC",4 µg/mL
same,MIC,"[5]; E. coli AR0346, read-out: MIC",2 µg/mL
same,MIC,"[5]; E. coli AR0348, read-out: MIC",2 µg/mL
same,MIC,"[5]; E. coli AR0350, read-out: MIC",1 µg/mL
same,MIC,"[5]; E. coli AR0493, read-out: MIC",4 µg/mL
same,MIC,"[5]; E. coli AR0494, read-out: MIC",4 µg/mL
same,MIC,"[5]; E. coli AR0495, read-out: MIC",2 µg/mL
same,MIC,"[5]; E. coli AR0541, read-out: MIC",1 µg/mL
same,MIC,"[5]; E. coli AR0543, read-out: MIC",4 µg/mL
same,MIC,"[5]; E. coli AR0546, read-out: MIC",0.5 µg/mL
same,MIC,"[5]; E. coli AR0551, read-out: MIC",2 µg/mL
same,MIC,"[5]; E. coli AR0559, read-out: MIC",2 µg/mL
same,MIC,"[5]; E. coli AR-0349 (colistin-resistant clinical isolate), read-out: MIC",1 µg/mL
same,MIC,"[5]; E. coli AR-0549, read-out: MIC",2 µg/mL
same,MIC,"[5]; E. coli ELZ 4004, read-out: MIC",2 µg/mL
same,MIC,"[5]; E. coli ELZ 4017, read-out: MIC",2 µg/mL
same,MIC,"[5]; E. coli ELZ 4042, read-out: MIC",4 µg/mL
same,MIC,"[5]; E. coli ELZ 4072, read-out: MIC",2 µg/mL
same,MIC,"[5]; E. coli ELZ 4081, read-out: MIC",2 µg/mL
same,MIC,"[5]; E. coli ELZ 4139, read-out: MIC",8 µg/mL
same,MIC,"[5]; E. coli ELZ 4239, read-out: MIC",4 µg/mL
same,MIC,"[5]; E. coli ELZ 4277, read-out: MIC",2 µg/mL
same,MIC,"[5]; E. coli ELZ 4346, read-out: MIC",2 µg/mL
same,MIC,[5]; E. coli ΔrfaC JW3596 (permeability mutant),0.06 µg/mL
same,MIC,[5]; E. coli ΔtolC JW5503 (efflux-deficient),0.008 µg/mL
same,reduction in bacterial burden,[6]; 100 mg/kg IP twice a day for 3 days,2 log
same,reduction in bacterial burden vs vehicle,[6]; 200 mg/kg PO twice a day for 3 days,3 log
same,MIC,"[7]; ATCC29893, E. cloacae ATCC 29893",4 µg/mL
same,MIC,"[7]; ATCCBAA2341, E. cloacae ATCC BAA-2341",16 µg/mL
same,MIC,"[7]; ATCCBAA2468, E. cloacae ATCC BAA-2468",4 µg/mL
same,MIC,[7]; E. cloacae AR0032,2 µg/mL
same,MIC,[7]; E. cloacae AR0038,8 µg/mL
same,MIC,[7]; E. cloacae AR0050,0.5 µg/mL
same,MIC,[7]; E. cloacae AR0053,4 µg/mL
same,MIC,[7]; E. cloacae AR0060,1 µg/mL
same,MIC,[7]; E. cloacae AR0065,1 µg/mL
same,MIC,[7]; E. cloacae AR0072,4 µg/mL
same,MIC,[7]; E. cloacae AR0073,16 µg/mL
same,MIC,[7]; E. cloacae AR0093,2 µg/mL
same,MIC,[7]; E. cloacae AR0132,1 µg/mL
same,MIC,[7]; E. cloacae AR0136,4 µg/mL
same,MIC,[7]; E. cloacae AR0154,0.25 µg/mL
same,MIC,[7]; E. cloacae AR0164,2 µg/mL
same,MIC,[7]; E. cloacae AR0544,4 µg/mL
same,MIC,[7]; E. cloacae AR0545,1 µg/mL
same,MIC,[7]; E. cloacae AR-0163,8 µg/mL
